Laboratory results: article PMC6164072, “Lysoquinone-TH1, a New Polyphenolic Tridecaketide Produced by Expressing the Lysolipin Minimal PKS II in Streptomyces albus” (Antibiotics, 2018)

Molecular target: T1, PDE-4B2 (Homo sapiens, UniProt Q07343)
T1 construct: gene PDE4B; human recombinant PDE-4B2 (BPS Bioscience no. 60042)
Assay: PDELight HTS cAMP phosphodiesterase luminescence assay
Assay type: biochemical

T1 sequence (Q07343 1-564 isoform Q07343-2): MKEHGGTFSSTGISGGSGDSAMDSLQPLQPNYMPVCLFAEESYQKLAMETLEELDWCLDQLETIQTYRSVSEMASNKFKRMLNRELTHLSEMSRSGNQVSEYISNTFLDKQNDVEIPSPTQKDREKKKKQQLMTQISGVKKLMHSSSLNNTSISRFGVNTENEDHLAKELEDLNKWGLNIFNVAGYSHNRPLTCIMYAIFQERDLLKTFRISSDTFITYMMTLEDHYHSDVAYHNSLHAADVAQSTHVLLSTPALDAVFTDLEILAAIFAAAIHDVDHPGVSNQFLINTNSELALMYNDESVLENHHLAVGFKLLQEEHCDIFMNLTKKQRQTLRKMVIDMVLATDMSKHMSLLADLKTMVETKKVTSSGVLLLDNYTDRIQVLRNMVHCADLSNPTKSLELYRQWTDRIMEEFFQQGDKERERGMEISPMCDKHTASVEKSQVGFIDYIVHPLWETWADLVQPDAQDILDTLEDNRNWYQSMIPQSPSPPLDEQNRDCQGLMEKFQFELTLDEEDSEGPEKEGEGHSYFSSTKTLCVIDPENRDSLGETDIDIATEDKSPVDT

IC50: 10 to 20 µM
Substance: lysoquinone-TH1 [compound 7]
